From patent EP1614683B1, “Indazole compounds and pharmaceutical compositions for inhibiting protein kinases, and methods for their use” (priority 1999, dated 2001)
Read-outs that look alike come from different tables or passages of the source.

What was measured:
LCK tyrosine kinase = LCK tyrosine kinase (Homo sapiens, UniProt P06239, C224D/P223M); experiment: LCK spectrophotometric assay; format: biochemical
Procedure: The spectrophotometric assay was carried out as described above for VEGF-R2, except for the following changes in concentration: LCK = 60 nM, MgCl2 = 0 mM, poly(E4Y1) = 20 mM.

human FGF-R1 = human FGF-R1 (Homo sapiens, UniProt P11362, C488A/C584S/L457V); experiment: FGF-R spectrophotometric assay; format: biochemical
Procedure: The spectrophotometric assay was carried out as described above for VEGF-R2, except for the following changes in concentration: FGF-R = 50 nM, ATP = 2 mM, and poly(E4Y1) =15 mM.

[1] = tested on: human umbilical vein endothelial cells (HUVEC); experiment: HUVEC proliferation assay (VEGF-stimulated, MTT); format: cell-based; details: for IC50: Homo sapiens, HUVEC, Table 1
Procedure: This assay determines the ability of a test compound to inhibit the growth factor-stimulated proliferation of human umbilical vein endothelial cells ("HUVEC"). HUVEC cells (passage 3-4, Clonetics, Corp.) were thawed into EGM2 culture medium (Clonetics Corp) in T75 flasks. Fresh EGM2 medium was added to the flasks 24 hours later. Four or five days later, cells were exposed to another culture medium (F12K medium supplemented with 10% fetal bovine serum (FBS), 60 µg/mL endothelial cell growth supplement (ECGS), and 0.1 mg/mL heparin). Exponentially-growing HUVEC cells were used in experiments thereafter. Ten to twelve thousand HUVEC cells were plated in 96-well dishes in 100 µl of rich, culture medium (described above). The cells were allowed to attach for 24 hours in this medium. The medium was then removed by aspiration and 105 µl of starvation media (F12K+1% FBS) was added to each well. After 24 hours, 15 µl of test agent dissolved in 1% DMSO in starvation medium or this vehicle alone was added into each treatment well; the final DMSO concentration was 0.1%. One hour later, 30 µl of VEGF (30 ng/mL) in starvation media was added to all wells except those containing untreated controls; the final VEGF concentration was 6 ng/mL. Cellular proliferation was quantified 72 hours later by MTT dye reduction, at which time cells were exposed for 4 hours MTT (Promega Corp.).

[2] = mouse, in vivo
[3] = Table 1, compound concentration 1 µM, read-out: Lck-P* (% inhibition)
[4] = Table 1, compound concentration 1 µM, read-out: FGF-P* (% inhibition)
[5] = + albumin, read-out: HUVEC + albumin IC50
[6] = read-out: Lck-P* (% inhibition)

Chain of human FGF-R1 (P11362 456-766 L457V/C488A/C584S): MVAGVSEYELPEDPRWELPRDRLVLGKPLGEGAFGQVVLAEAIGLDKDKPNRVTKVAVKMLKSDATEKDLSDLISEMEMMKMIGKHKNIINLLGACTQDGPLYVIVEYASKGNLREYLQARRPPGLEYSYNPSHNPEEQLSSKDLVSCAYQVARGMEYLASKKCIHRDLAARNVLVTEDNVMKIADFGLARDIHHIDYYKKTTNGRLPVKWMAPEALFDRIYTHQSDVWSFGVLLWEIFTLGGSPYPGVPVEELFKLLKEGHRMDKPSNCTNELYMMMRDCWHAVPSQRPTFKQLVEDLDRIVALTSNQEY
Chain of LCK tyrosine kinase (P06239 223-509 P223M/C224D): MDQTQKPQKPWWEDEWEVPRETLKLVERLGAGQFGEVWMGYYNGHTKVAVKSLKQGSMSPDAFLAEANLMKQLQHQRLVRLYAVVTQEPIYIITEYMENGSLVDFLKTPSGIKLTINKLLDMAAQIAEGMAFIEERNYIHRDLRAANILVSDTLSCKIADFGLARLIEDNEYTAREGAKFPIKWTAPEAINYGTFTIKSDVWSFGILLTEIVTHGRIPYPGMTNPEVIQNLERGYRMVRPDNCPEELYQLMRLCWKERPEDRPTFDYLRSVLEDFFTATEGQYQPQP

COc1cc(O)ccc1-c1ccc2c(-c3nc4ccccc4[nH]3)n[nH]c2c1 [24(d), 3-1H-Benzoimidazol-2-yl-6-(4-hydroxy-2-methoxyphenyl)-1H-indazole]
inhibition at 1 µM (LCK tyrosine kinase; read-out: Lck* (% inhibition)): 51% | inhibition at 1 µM (human FGF-R1; read-out: FGF* (% inhibition)): 66%

O=C(Nc1cccc(Sc2ccc3c(/C=C/c4ccccc4)n[nH]c3c2)c1)c1ccccc1 [20(b), 6-(3-(Benzoylamido)-phenylsulfanyl)-3-styryl-1H-indazole]
inhibition at 1 µM (LCK tyrosine kinase; [3]): 23% | inhibition at 1 µM (human FGF-R1; [4]): 28% | IC50 ([1]; read-out: HUVEC IC50): 8.2 nM

Oc1cccc(Oc2ccc3c(/C=C/c4ccccc4)n[nH]c3c2)c1 [9(a), 3-(E-styryl)-6-[3-hydroxyphenoxy]-1H-indazole]
IC50 ([1]; read-out: HUVEC IC50): 870 nM

NC(=O)c1ccccc1Sc1ccc2c(/C=C/c3ccccn3)n[nH]c2c1 [H-X1]
% inhibition of the proliferation of HUVEC, 0.5 nM ([1]; Library Table II, Y = S (reference Example), nominal concentration 0.5 nM, crude library reaction mixtures, >50% considered significant): 9% | % inhibition of the proliferation of HUVEC, 2 nM ([1]; Library Table II, Y = S (reference Example), nominal concentration 2 nM, crude library reaction mixtures, >50% considered significant): 30%

Cc1cnc(C(=O)Nc2cccc(N(C)c3ccc4c(/C=C/c5ccccc5)n[nH]c4c3)c2)s1 [12(d), 5-Methyl-thiazole-2-carboxylic acid {3-[methyl-(3-styryl-1H-indazol-6-yl)-amino]-phenyl)-amide]
inhibition at 1 µM (LCK tyrosine kinase; [3]): 31% | inhibition at 1 µM (human FGF-R1; [4]): 61% | IC50 ([1]; read-out: HUVEC IC50): 8.1 nM

CNC(=O)c1cccc2[nH]c(-c3n[nH]c4cc(-c5ccc(O)cc5OC)ccc34)nc12 [Reference Example 25(j), 3-(4-methylcarbamoyl-1H-benzoimidazol-2-yl)-6-(2-methoxy-4-hydroxy-phenyl)-1H-indazole]
inhibition at 1 µM (human FGF-R1; read-out: FGF* (% inhibition)): 70%

CC(C)(C)c1ccc(C(=O)Nc2cccc(C(=O)c3ccc4c(/C=C/c5ccccn5)n[nH]c4c3)c2)cc1 [Reference Example 41(s), 6-[3-(4-t-butylbenzamido)benzoyl}-3-E-[2-(pyridin-2-yl)ethenyl]-1H-indazole]
inhibition at 1 µM (LCK tyrosine kinase; [3]): 53% | inhibition at 1 µM (human FGF-R1; [4]): 86%

COc1cc(-c2ccc3c(-c4ccccc4)n[nH]c3c2)ccc1O [2(b), 3-phenyl-6-(3-methoxy-4-hydroxy-phenyl)-1H-indazole]
Ki (human FGF-R1; read-out: FGF-P* (Ki, cell in µM), Table 1): 228 µM

CN(c1cccc(NC(=O)c2cccc(C(F)(F)F)c2)c1)c1ccc2c(/C=C/c3ccc4c(c3)OCO4)n[nH]c2c1 [16(d), N-(3-{[3-(2-Benzo[1,3]dioxol-5-yl-vinyl)-1H-indazol-6-yl]-methyl-amino}-phenyl)-3-trifluoromethyl-benzamide]
inhibition at 1 µM (LCK tyrosine kinase; [3]): 33% | inhibition at 1 µM (human FGF-R1; [4]): 90% | IC50 ([1]; read-out: HUVEC IC50): 11 nM

C=C(c1cccc(NC(=O)OCc2ccccc2)c1)c1ccc2c(/C=C/c3ccccc3)n[nH]c2c1 [22(c)]
IC50 ([1]; read-out: HUVEC IC50): 38 nM

CCn1nc(C)cc1C(=O)Nc1cccc(Oc2ccc3c(/C=C/c4ccccc4)n[nH]c3c2)c1 [Reference Example 30(e), 6-[3-((1-Ethyl-3-methyl-1H-pyrazol-5-yl)carboxamido)phenoxy]-3-E-stryrylindazole]
inhibition at 1 µM (LCK tyrosine kinase; [3]): 62% | inhibition at 1 µM (human FGF-R1; [4]): 92% | IC50 [1, 5]: 29 nM

CN(C)c1cccc(C(=O)Nc2cccc(N(C)c3ccc4c(/C=C/c5ccc6c(c5)OCO6)n[nH]c4c3)c2)c1 [16(c), N-(3-{[3-(2-Benzo[1,3]dioxol-5-yl-vinyl)-1H-indazol-6-yl]-methyl-amino}-phenyl)-3-dimethylamino-benzamide]
IC50 ([1]; read-out: HUVEC IC50): 100 to 1000 nM

C=CCOc1cc(-c2ccc3c(/C=C/c4ccc(OC)c(OC)c4)n[nH]c3c2)ccc1O [1(c), 3-[E-2-(3,4-Dimethoxy-phenyl)vinyl]-6-(3-allyloxy-4-hydroxyphenyl)-1H-indazole]
inhibition at 1 µM (LCK tyrosine kinase; [6]): 46%

Cc1cncc(C(=O)Nc2cccc(C(=O)c3ccc4c(/C=C/c5ccccc5)n[nH]c4c3)c2)c1 [19(e), 6-[3-(5-methylpyridin-3-ylcarboxamide)benzoyl]-3-E-styryl-1H-indazole]
IC50 ([1]; read-out: HUVEC IC50): > 300 nM

COc1cc(C(=O)Nc2cccc(C(=O)c3ccc4c(/C=C/c5ccccn5)n[nH]c4c3)c2)cc(Cl)n1 [Reference Example 41(u), 6-[3-((2-chloro-6-methoxypyridin-4-yl)carboxamido)benzoyl]-3-E-[2-(pyridin-2-yl)ethenyl]-1H-indazole]
inhibition at 1 µM (LCK tyrosine kinase; [3]): 54% | inhibition at 1 µM (human FGF-R1; [4]): 74% | IC50 [1, 5]: 7.9 nM

CN(c1cccc(NC(=O)c2ccc(O)c(C(C)(C)C)c2)c1)c1ccc2c(/C=C/c3ccc4c(c3)OCO4)n[nH]c2c1 [16(f)]
IC50 ([1]; read-out: HUVEC IC50): > 30 nM

CC(=O)N1CCC(C(=O)Nc2cccc(Oc3ccc4c(/C=C/c5ccc(Cl)cc5)n[nH]c4c3)c2)CC1 [Reference Example 30(b), 6-[3-(1-acetylpiperidin-4-ylcarboxamido)phenoxy]-3-E-[2-(4-chlorophenyl)ethenyl]-1H-indazole]
IC50 ([1]; read-out: HUVEC IC50): 90 nM

Cc1cc(C(=O)Nc2cccc(C(=O)c3ccc4c(/C=C/c5ccccn5)n[nH]c4c3)c2)n[nH]1 [41 (g)]
Cmin (7 hr conc.) ([2]; ip, 25 mg/kg, 420 min, pH 2.3): 0 ng/mL | AUCleast ([2]; ip, 25 mg/kg, pH 2.3): 1925 ng·h/mL | T1/2 ([2]; ip, 25 mg/kg, pH 2.3): 0.3 h | Cmin (7 hr conc.) ([2]; po, 50 mg/kg, 7 h, pH 2.3): 1 ng/mL | AUCleast ([2]; po, 50 mg/kg, pH 2.3): 508 ng·h/mL | T1/2 ([2]; po, 50 mg/kg, pH 2.3): 0.7 h

O=C(NCc1ccccc1F)c1ccccc1Sc1ccc2c(/C=C/c3ccccn3)n[nH]c2c1 [35 (f)]
AUCleast ([2]; ip, 25 mg/kg, pH 2.3): 397 ng·h/mL | T1/2 ([2]; ip, 25 mg/kg, pH 2.3): 3.8 h | AUCleast ([2]; po, 50 mg/kg, pH 2.3): 358 ng·h/mL | T1/2 ([2]; po, 50 mg/kg, pH 2.3): 3.6 h

O=C(NNC(=O)c1ccccc1Sc1ccc2c(/C=C/c3ccccn3)n[nH]c2c1)c1cccs1 [Reference Example 35(m), 6-[2-((Thien-2-ylhydrazido)carbonyl)phenylsulfanyl]-3-E-[2-(pyridin-2-yl)ethenyl]-1H-indazole]
inhibition at 1 µM (LCK tyrosine kinase; [3]): 61% | inhibition at 1 µM (human FGF-R1; [4]): 82% | IC50 [1, 5]: 35 nM

COc1cc(O)ccc1-c1ccc2c(-c3nc4c(SCCO)cccc4[nH]3)n[nH]c2c1 [Reference Example 25(f), 3-[4-(2-hydroxyethylsulfanyl)-1H-benzoimidazol-2-yl)-6-(2-methoxy-4-hydroxyphenyl)-1H-indazole]
inhibition at 1 µM (LCK tyrosine kinase; read-out: Lck* (% inhibition)): 58% | inhibition at 1 µM (human FGF-R1; read-out: FGF* (% inhibition)): 56%

O=C(Nc1cccc(Nc2ccc3c(/C=C/c4ccccc4)n[nH]c3c2)c1)c1ccccc1 [Example 13, N-[3-(3-Styryl-1H-indazol-6-ylamino)-phenyl)-benzamide]
inhibition at 1 µM (LCK tyrosine kinase; [6]): 61% | inhibition at 1 µM (human FGF-R1; read-out: FGF-P* (% inhibition)): 74% | IC50 [1, 5]: 28 nM | IC50 ([1]; read-out: HUVEC IC50): 3.9 nM

CCn1nc(C)cc1C(=O)Nc1cccc(Oc2ccc3c(/C=C/c4ccccn4)n[nH]c3c2)c1.Cl [59 (e)]
AUCleast ([2]; po, 25 mg/kg): 12510 ng·h/mL | T1/2 ([2]; po, 25 mg/kg): 21 h

Cc1cnccc1C(=O)Nc1cccc(C(=O)c2ccc3c(/C=C/c4ccccn4)n[nH]c3c2)c1 [41 (j)]
AUCleast ([2]; po, 25 mg/kg, pH 2.3): 1476 ng·h/mL | T1/2 ([2]; po, 25 mg/kg, pH 2.3): 1.3 h

CONC(=O)c1ccccc1Sc1ccc2c(/C=C/c3ccccn3)n[nH]c2c1 [35 (r)]
AUCleast ([2]; po, 25 mg/kg, pH 2.3): 4261 ng·h/mL | T1/2 ([2]; po, 25 mg/kg, pH 2.3): 1.3 h

O=C(Nc1cccc(Oc2ccc3c(/C=C/c4ccco4)n[nH]c3c2)c1)c1ccccc1 [Reference Example 30(c), 6-[3-benzamidophenoxy]-3-[2-(fur-2-yl)ethenyl]-1H-indazole]
inhibition at 1 µM (LCK tyrosine kinase; [3]): 44% | inhibition at 1 µM (human FGF-R1; [4]): 82% | IC50 [1, 5]: 21 nM | IC50 ([1]; read-out: HUVEC IC50): 2.5 nM

Cc1ccc(CNC(=O)c2ccccc2Sc2ccc3c(/C=C/c4ccccn4)n[nH]c3c2)o1 [35 (h)]
Cmin (7 hr conc.) ([2]; ip, 25 mg/kg, 7 h, pH 2.3): 1 ng/mL | AUCleast ([2]; ip, 25 mg/kg, pH 2.3): 59 ng·h/mL | T1/2 ([2]; ip, 25 mg/kg, pH 2.3): 1.5 h | Cmin (7 hr conc.) ([2]; po, 50 mg/kg, 7 h, pH 2.3): 2 ng/mL | AUCleast ([2]; po, 50 mg/kg, pH 2.3): 26 ng·h/mL

O=C(Nc1cccc(C(=O)c2ccc3c(/C=C/c4ccccc4)n[nH]c3c2)c1)OCc1ccccc1 [19(c), [3-(3-Styryl-1H-indazole-6-carbonyl)-phenyl]-carbamic acid benzyl ester]
inhibition at 1 µM (LCK tyrosine kinase; [3]): 50% | inhibition at 1 µM (human FGF-R1; [4]): 68% | IC50 ([1]; read-out: HUVEC IC50): 17 nM

O=C(Nc1cccc(Oc2ccc3c(/C=C/c4ccccc4)n[nH]c3c2)c1)c1cccc2[nH]ccc12 [Reference Example 30(d), 6-[3-(indol-4-ylcarboxamido)phenoxy]-3-E-stryrylindazole]
IC50 [1, 5]: 3.8 nM

O=C(NCC(F)(F)F)c1ccccc1Sc1ccc2c(/C=C/c3ccccn3)n[nH]c2c1 [33 (f)]
Cmin (7 hr conc.) ([2]; ip, 25 mg/kg, 7 h, pH 2.3): 6 ng/mL | AUCleast ([2]; ip, 25 mg/kg, pH 2.3): 1887 ng·h/mL | T1/2 ([2]; ip, 25 mg/kg, pH 2.3): 2.4 h | Cmin (7 hr conc.) ([2]; po, 50 mg/kg, 7 h, pH 2.3): 3 ng/mL | AUCleast ([2]; po, 50 mg/kg, pH 2.3): 1436 ng·h/mL | T1/2 ([2]; po, 50 mg/kg, pH 2.3): 0.7 h
